Measured values published in ChEMBL document CHEMBL1909046, “DrugMatrix in vitro pharmacology data”.

Tests used:
[1] = DRUGMATRIX: Calcium Channel Type L, Dihydropyridine radioligand binding (ligand: [3H] Nitrendipine); format: cell membranes, Rattus norvegicus, Wistar, Cerebral cortex, Membrane; conditions: Not Active = under 50% inhibition at 10 µM
Progesterone receptor = molecular target: T1, Progesterone receptor (Bos taurus, UniProt Q690N0); assay: DRUGMATRIX: Progesterone radioligand binding (ligand: [3H] R-5020); format: tissue-based, Uterus; conditions: Not Active = under 50% inhibition at 10 µM
T1 sequence (Q690N0 whole entry): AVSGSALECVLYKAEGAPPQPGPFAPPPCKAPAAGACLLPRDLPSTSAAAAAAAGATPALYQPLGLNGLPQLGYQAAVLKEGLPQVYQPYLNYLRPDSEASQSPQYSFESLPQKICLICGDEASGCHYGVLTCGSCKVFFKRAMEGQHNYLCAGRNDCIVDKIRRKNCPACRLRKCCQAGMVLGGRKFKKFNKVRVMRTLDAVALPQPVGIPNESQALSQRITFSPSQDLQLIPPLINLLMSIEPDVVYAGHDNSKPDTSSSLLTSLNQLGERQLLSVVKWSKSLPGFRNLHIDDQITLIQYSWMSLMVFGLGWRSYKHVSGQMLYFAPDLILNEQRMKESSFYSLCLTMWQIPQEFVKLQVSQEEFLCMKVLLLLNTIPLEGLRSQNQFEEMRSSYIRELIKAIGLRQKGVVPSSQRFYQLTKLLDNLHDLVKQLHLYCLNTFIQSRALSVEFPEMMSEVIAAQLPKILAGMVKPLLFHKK

[2] = molecular target: C-C chemokine receptor type 2 (Homo sapiens, UniProt P41597); format: cell membranes, CHO-K1, Membrane; conditions: cho-k1; further: in other assays of this panel Not Active means under 50% inhibition at 10 µM
Sequence of C-C chemokine receptor type 2 (P41597 whole entry): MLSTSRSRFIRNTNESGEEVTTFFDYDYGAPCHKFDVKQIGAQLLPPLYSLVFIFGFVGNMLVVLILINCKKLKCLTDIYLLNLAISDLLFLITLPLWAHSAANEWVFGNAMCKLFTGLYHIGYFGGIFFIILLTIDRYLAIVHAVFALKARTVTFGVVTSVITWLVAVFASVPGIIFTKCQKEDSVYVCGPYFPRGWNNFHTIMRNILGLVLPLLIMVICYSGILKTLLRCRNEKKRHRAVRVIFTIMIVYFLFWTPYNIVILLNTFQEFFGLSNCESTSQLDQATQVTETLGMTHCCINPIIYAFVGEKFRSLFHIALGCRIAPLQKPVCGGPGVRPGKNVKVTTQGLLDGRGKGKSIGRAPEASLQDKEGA

[3] = molecular target: T2, Cysteinyl leukotriene receptor 1 (Homo sapiens, UniProt Q9Y271); format: cell membranes, CHO-K1, Membrane; conditions: cho-k1; further: in other assays of this panel Not Active means under 50% inhibition at 10 µM
T2 sequence (Q9Y271 whole entry): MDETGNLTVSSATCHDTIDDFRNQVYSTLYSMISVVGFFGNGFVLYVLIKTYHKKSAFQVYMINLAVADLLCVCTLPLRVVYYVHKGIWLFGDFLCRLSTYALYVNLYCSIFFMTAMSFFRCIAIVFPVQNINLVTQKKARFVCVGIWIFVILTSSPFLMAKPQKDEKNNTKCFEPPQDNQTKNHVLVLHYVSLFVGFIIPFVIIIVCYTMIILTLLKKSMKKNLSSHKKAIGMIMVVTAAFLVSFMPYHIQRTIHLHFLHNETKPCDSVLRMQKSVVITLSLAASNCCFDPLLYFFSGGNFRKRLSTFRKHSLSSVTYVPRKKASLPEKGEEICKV

[4] = molecular target: T3, C-C chemokine receptor type 4 (Homo sapiens, UniProt P51679); format: cell membranes, Membrane; conditions: chem-1; further: in other assays of this panel Not Active means under 50% inhibition at 10 µM
T3 sequence (P51679 whole entry): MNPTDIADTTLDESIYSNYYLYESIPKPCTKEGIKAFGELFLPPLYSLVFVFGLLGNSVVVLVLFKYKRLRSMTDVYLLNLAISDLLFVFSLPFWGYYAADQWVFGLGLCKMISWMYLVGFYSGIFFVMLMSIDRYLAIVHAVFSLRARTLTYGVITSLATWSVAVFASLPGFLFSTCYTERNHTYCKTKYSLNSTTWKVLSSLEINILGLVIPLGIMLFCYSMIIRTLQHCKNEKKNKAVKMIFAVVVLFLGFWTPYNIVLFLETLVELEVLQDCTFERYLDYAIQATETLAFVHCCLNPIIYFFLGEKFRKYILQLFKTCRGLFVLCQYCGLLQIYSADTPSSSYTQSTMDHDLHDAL

Adenosine receptor A1 = molecular target: T4, Adenosine receptor A1 (Homo sapiens, UniProt P30542); format: cell membranes, Membrane; conditions: cho;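 further: radioligand binding assay at the adenosine A1 receptor, with DPCPX serving as the labelled ligand; in other assays of this panel Not Active means under 50% inhibition at 10 µM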
T4 sequence (P30542 whole entry): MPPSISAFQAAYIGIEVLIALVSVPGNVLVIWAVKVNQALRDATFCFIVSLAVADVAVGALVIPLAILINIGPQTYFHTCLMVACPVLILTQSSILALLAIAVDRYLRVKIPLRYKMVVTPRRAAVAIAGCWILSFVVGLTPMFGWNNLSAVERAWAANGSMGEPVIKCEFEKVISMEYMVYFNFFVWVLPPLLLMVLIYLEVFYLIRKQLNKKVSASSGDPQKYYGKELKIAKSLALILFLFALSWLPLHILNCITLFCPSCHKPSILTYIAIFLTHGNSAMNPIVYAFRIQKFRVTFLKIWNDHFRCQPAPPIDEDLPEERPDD

Cytochrome P450 2E1 = Cytochrome P450 2E1 (Homo sapiens, UniProt P05181); conditions: bti-tn-5b1-4; further: in other assays of this panel Not Active means under 50% inhibition at 10 µM
Sequence of Cytochrome P450 2E1 (P05181 whole entry): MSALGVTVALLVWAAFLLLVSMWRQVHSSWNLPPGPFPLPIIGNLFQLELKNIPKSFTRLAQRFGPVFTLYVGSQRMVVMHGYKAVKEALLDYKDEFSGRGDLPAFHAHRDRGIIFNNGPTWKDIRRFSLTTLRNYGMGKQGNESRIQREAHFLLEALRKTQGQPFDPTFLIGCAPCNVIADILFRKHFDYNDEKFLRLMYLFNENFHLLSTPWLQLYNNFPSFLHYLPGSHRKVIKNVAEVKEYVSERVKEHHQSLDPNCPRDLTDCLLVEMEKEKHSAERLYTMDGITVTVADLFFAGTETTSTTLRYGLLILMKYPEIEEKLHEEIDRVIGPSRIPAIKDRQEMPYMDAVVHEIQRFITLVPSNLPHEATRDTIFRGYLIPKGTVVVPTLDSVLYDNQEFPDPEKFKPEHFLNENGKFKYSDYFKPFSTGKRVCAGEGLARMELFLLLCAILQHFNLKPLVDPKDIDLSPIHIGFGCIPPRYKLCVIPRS

[5] = molecular target: Voltage-gated inwardly rectifying potassium channel KCNH2 (Homo sapiens, UniProt Q12809); conditions: hek293; further: in other assays of this panel Not Active means under 50% inhibition at 10 µM
Sequence of Voltage-gated inwardly rectifying potassium channel KCNH2 (Q12809 whole entry): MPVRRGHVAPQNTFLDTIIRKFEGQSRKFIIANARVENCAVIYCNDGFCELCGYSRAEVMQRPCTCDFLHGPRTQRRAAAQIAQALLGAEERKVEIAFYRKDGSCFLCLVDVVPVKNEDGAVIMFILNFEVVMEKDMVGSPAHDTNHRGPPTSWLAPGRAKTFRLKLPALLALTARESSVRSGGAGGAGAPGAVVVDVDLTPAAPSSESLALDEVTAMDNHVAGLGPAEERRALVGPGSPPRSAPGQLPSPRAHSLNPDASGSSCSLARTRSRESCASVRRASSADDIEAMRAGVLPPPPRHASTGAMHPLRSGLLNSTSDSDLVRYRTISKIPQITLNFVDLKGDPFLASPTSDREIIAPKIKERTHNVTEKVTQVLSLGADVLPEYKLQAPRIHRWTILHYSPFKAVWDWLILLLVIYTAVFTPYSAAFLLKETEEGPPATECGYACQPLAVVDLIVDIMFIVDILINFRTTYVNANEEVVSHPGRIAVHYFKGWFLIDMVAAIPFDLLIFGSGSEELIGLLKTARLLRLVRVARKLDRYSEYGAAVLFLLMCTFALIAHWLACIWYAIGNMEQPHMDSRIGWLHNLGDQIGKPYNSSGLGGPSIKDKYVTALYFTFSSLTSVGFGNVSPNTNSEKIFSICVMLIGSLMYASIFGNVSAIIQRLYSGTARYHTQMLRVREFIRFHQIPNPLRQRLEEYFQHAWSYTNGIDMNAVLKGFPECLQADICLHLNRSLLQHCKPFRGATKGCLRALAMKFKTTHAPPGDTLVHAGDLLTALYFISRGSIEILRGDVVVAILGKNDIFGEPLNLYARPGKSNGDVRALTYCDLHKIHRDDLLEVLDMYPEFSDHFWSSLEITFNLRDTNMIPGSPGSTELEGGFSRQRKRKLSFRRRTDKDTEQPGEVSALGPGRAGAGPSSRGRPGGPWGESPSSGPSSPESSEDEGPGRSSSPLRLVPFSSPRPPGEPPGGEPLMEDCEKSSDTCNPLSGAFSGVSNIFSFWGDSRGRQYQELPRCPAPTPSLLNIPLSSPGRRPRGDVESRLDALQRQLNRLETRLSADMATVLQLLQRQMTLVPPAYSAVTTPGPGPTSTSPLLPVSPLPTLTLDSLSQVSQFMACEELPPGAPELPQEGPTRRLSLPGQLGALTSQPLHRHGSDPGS

[6] = molecular target: T5, Polyunsaturated fatty acid lipoxygenase ALOX15 (Oryctolagus cuniculus, UniProt P12530); assay: biochemical; format: tissue-based, Reticulocytes; conditions: reticulocytes
T5 sequence (P12530 whole entry): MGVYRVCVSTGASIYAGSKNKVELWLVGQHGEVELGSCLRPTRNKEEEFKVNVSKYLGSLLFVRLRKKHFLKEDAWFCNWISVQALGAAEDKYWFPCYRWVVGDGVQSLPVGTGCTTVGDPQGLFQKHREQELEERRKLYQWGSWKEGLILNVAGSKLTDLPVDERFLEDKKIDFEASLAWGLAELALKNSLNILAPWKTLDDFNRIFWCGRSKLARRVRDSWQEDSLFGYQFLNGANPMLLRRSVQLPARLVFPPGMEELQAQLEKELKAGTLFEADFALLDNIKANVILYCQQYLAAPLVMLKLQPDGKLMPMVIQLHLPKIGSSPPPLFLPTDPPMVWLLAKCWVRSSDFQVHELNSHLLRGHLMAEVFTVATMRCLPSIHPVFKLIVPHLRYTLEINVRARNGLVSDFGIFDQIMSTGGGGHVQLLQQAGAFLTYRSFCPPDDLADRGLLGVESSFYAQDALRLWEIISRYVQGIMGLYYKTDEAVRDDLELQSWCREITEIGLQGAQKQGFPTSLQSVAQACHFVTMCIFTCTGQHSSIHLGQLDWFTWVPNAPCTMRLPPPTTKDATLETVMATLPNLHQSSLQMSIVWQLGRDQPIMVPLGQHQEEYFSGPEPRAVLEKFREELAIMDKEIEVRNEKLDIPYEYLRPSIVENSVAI

CO[C@H]1/C=C/O[C@@]2(C)Oc3c(C)c(O)c4c(c3C2=O)C2=NC3(CCN(CC(C)C)CC3)NC2=C(NC(=O)/C(C)=C\C=C\[C@H](C)[C@H](O)[C@@H](C)[C@@H](O)[C@@H](C)[C@H](OC(C)=O)[C@@H]1C)C4=O [RIFABUTIN]
Not Active: IC50 [1] | Ki [1] | IC50 (Progesterone receptor) | IC50 [2] | IC50 [3] | IC50 [4] | IC50 (Adenosine receptor A1) | IC50 (Cytochrome P450 2E1) | Ki (Cytochrome P450 2E1) | IC50 [5] | Ki [5] | IC50 [6]
